“Also recorded” adds a separate entry of the source.
Experiments:
[1] = Confocal imaging of giant vesicles containing DPPC-TC-ONOO^− treated with redox species
Method: FIG. 8A: conceptual illustration of function of the model protocell. FIG. 8B: confocal images acquired for untreated (top panel) and peroxynitrite-treated (middle and bottom panels) GVs. FIG. 8C: confocal images acquired for GVs treated with other RNS and ROS. FIGS. 8B-8C: vesicles were prepared from POPC (98.5%, molar ratio) and DPPC-TC-ONOO^− (1%) via electroformation. Liss-Rhod PE dye (red, 560 nm excitation) was used at 0.5 mol % to label vesicle membranes. […] Scale bar=5 μm. In most biomimetic systems that rely on compartmentalization, physical membrane boundaries are comprised of self-assembled lipids. Biomimetic membranes can be represented by GVs, which have dimensional properties (1-30 μm in diameter) relevant to those of mammalian cells (10-100 μm), display physical characteristics feasible for confocal fluorescence imaging, and are utilized for bottom-up construction of biomimetic systems. […] Given the longer timescale required for data acquisition in microscopy compared to fluorescence measurements by plate reader, the pH of imaging buffers was set to 8.5, which extended the lifetime of peroxynitrite. […] Vesicle size distribution was analyzed by dynamic light scattering (DLS), confirming the presence of GVs. […] GVs were then imaged using fluorescence confocal microscopy. […]

[2] = system: HeLa cells; assay: Confocal imaging and colocalization in live HeLa cells; assay type: cell-based; details: for fluorescence at 405/475 nm: LNPs
Method: FIGS. 9A-9E: confocal imaging of lipid environments targeted by ONOO^− in live HeLa cells. Cells were seeded into glass microscope dishes, incubated with LNPs (50 μM) and stained with organelle trackers and/or actin dye prior to imaging. LNPs obtained from a 47.5:47.5:5.0 molar ratio of DOTMA, DOPE, and DPPC-TC-ONOO^−. FIG. 9A: cells treated with LNPs, stimulated with IFN-γ/LPS/PMA. Time coarse images acquired upon PMA treatment. FIG. 9B: cells treated with LNPs and 1400 W. FIG. 9C: cells treated with LNPs, then with 1400 W and IFN-γ/LPS/PMA. FIGS. 9D-9E: quantitative colocalization study of cells treated with LNPs and stimulated with IFN-γ/LPS/PMA. Pearson's correlation coefficient (PCC) was calculated for quantitative assessment. Organelle trackers: ER-Tracker™, MitoTracker™, CellLight™ Golgi-RFP, LysoTracker™. Cell cytoskeleton was assessed with CellMask™ Deep Red Actin Tracking Stain. DPPC-TC channel: 405/475 nm. Scale bars=20 μm (FIGS. 9A-9D) or 5 μm (FIG. 9E). With the utility of DPPC-TC-ONOO^− proven in synthetic protocell membranes, incorporation into live HeLa and RAW 264.7 cells was sought, which are relevant to redox-induced stress and have well-recognized pathways for RNS and ROS production. Lipid nanoparticles (LNPs) (˜100 nm in diameter) was used to deliver DPPC-TC-ONOO− into cells. This method circumvented the limited solubility of DPPC-TC-ONOO− due to the relatively hydrophobic butanone-coumarin motif. LNPs were obtained via sonication from 1,2-di-O-octadecenyl-3-trimethylammonium propane (DOTMA), 1,2-dioleoyl-sn-glycero-3-phosphoethanolamine (DOPE), and DPPC-TC-ONOO− (47.5:47.5:5.0 molar ratio), which were hydrated with a 300 mM sucrose solution. DOTMA and DOPE were chosen as the carrier lipids due to their cationic/zwitterionic natures, which has been postulated to enhance uptake through the cell membrane. The impact of different LNP compositions and incubation times on the cellular incorporation of DPPC-TC-ONOO^− was assessed. […] Specifically, LNPs containing greater than 10 mol % DPPC-TC-ONOO− were considerably more heterogenous in size (up to […] observed, in contrast to ˜100 nm) and nonuniform in vesicle lamellarity. Those with less than 4 mol % DPPC-TC-ONOO− led to insufficient fluorescence signal. To balance these counteracting factors, 5 mol % DPPC-TC-ONOO− was used, with 47.5 mol % DOTMA and DOPE, each. In these initial assays, cells were incubated with LNPs for up to 15 hours to complete the uptake and intracellular localization of DPPC-TC-ONOO−. Shorter incubation times (3-to-5 hours) led to its uptake but not subcellular localization. […] However, high serum concentration in DMEM caused interference between LNPs and serum-protein, resulting in aggregate formation as observed by microscopy. To overcome this obstacle, LNPs (50 μM) were used in a mixture of 2/3 volumetric ratio of sucrose solution and Opti-MEM™, a reduced serum medium known to increase the efficiency of lipofection. […] For a physiologically relevant stress model, the standard stimulation condition involving IFN-γ/LPS/PMA was employed. Treatment of cells with IFN-γ/LPS leads to the endogenous production of nitric oxide and PMA provokes increased levels of superoxide. These two reactive species combine to form peroxynitrite, as described elsewhere herein. […] The intracellular redox selectivity of DPPC-TC-ONOO^− was also assessed using N-(3-(aminomethyl)benzyl)-acetamidine, known as 1400 W, which inhibits the production of NO· by irreversibly binding to iNOS. […] To determine whether DPPC-TC-ONOO^− localizes and functions at a specific subcellular compartment in HeLa, a comprehensive colocalization study was performed with dyes specific for lipid-rich and membrane-enclosed organelles, including the ER, mitochondrion, Golgi apparatus, and lysosome (FIGS. 9D-9E). In addition, actin stain was used to gain a visual insight into the cytoskeletal structure of the whole cell. […]

For `CCCCCCCCCCCCCCCC(=O)OCC(COP(=O)([O-])OCC[N+](C)(C)Cc1cn(-c2cc3ccc(OC(=O)Oc4ccc(CCC(=O)C(F)(F)F)cc4)cc3oc2=O)nn1)OC(=O)CCCCCCCCCCCCCCC` (racemic) [DPPC-TC-ONOO^−], the “GV membrane fluorescence at 405 nm excitation” value ([1]; GVs of POPC and DPPC-TC-ONOO^− (~99:1), ONOO^− 100 μM) was “substantial increase in membrane fluorescence; also recorded: strong fluorescence”, the “GV fluorescence at 405 nm excitation” value ([1]; GVs of POPC and DPPC-TC-ONOO^−, other redox species (NO·, H2O2, HO·, ^1O2, O2·^−) 100 μM, 5 min) was “essentially no fluorescence generation; also recorded: minimal fluorescence” and the “signal in the DPPC-TC channel” value ([2]; 1400 W only or 1400 W and IFN-γ/LPS/PMA) was “no observable signal”. For the same compound, the “Pearson's correlation coefficient (PCC)” value ([2]; DPPC-TC signal vs ER-Tracker Green) was 0.938, the “fluorescence at 405/475 nm” value ([2]; no stimulation) was “no observable signal” and the “fluorescence at 405/475 nm” value ([2]; stimulation with IFN-γ/LPS/PMA) was “substantial increase in fluorescence”. The colocalization correlation ([2]; dyes specific for Golgi, mitochondria, and lysosomes) was “less significant correlation” and the “time point at which intracellular fluorescence was observable upon PMA addition” value ([2]; post IFN-γ/LPS stimulation, earliest possible image acquisition time) was 3 min.

Reference: patent US20240385182A1, “MASKED FLUOROGENIC LIPID COMPOUNDS, LIPID PARTICLES COMPRISING THE SAME, AND METHODS OF USE THEREOF” (Rutgers, The State University of New Jersey, priority 2023, published 2024)
